What follows are compounds tested on SARS-CoV-2 NSP3 Mac1 (assay: Overall hit call (binding in crystallographic soaking or the HTRF-based binding assay)). Conditions: not given.
Excerpt: Supplement pnas.2212931120.sd01.xlsx, sheet "Compound Summary" | column: HIT*

SMILES	HIT*
CC(=O)Nc1nc(C)c(S(=O)(=O)Nc2ccc(C)c(C#N)c2)s1 [Z6707]	Y
Cc1oc(C(N)=O)cc1S(=O)(=O)Nc1ccc(Br)c(C#N)c1 [Z6708]	Y
Cc1oc(C(N)=O)cc1S(=O)(=O)Nc1cnc(Cl)c(C#N)c1 [Z6746]	Y
O=C(O)c1ccc(F)c(CNC(=O)c2ccc3[nH]ccc3c2)c1 [Z7647]	Y
CO[C@@H]1CN(c2ncnc3[nH]c4cc(F)ccc4c23)C[C@@H](CO)O1 [Z8973]	Y
COC(=O)C1(CO)CCN(c2ncnc3[nH]c4cc(F)ccc4c23)C1 (stereo not shown) [Z9556]	Y

Each compound was assayed against T1, SARS-CoV-2 NSP3 Mac1 (Severe acute respiratory syndrome coronavirus 2, UniProt P0DTD1) (assay: not given). Conditions: PanDDA 1-BDC value of the event; crystal soak, compound concentration 100 mM; per dataset.
Type: binding

SMILES	1-BDC
COC(=O)Nc1ccc(C(=O)NC2c3ccccc3CC2C(=O)O)cc1 (stereo not shown) [Z8531]	0.04
O=C(NC1c2cccc(O)c2CC1C(=O)O)c1ccc(Nn2ccnc2)cc1 (stereo not shown) [Z8539_0011]	0.25

Same assay, conditions: PanDDA event map, 1 minus background density correction; crystal soaking of Mac1

SMILES	1-BDC
COC(=O)Nc1ccc(C(=O)NC2c3ccccc3CC2C(=O)O)cc1 (stereo not shown) [Z8531]	0.04
O=C(NC1c2cccc(O)c2CC1C(=O)O)c1ccc(Nn2ccnc2)cc1 (stereo not shown) [Z8539_0011]	0.35

Same assay, conditions: crystal soak, compound concentration 100 mM; per dataset

SMILES	PanDDA hit?
COC(=O)Nc1ccc(C(=O)NC2c3ccccc3CC2C(=O)O)cc1 (stereo not shown) [Z8531]	TRUE
O=C(NC1c2cccc(O)c2CC1C(=O)O)c1ccc(Nn2ccnc2)cc1 (stereo not shown) [Z8539_0011]	TRUE

Same assay, conditions: ligand modeled from this dataset; compound concentration 100 mM, Echo dispense volume 40 or 80 nl

SMILES	Modeled?
O=C(NC1c2cccc(O)c2CC1C(=O)O)c1ccc(Nn2ccnc2)cc1 (stereo not shown) [Z8539_0011]	TRUE

Same assay, conditions: ligand modeled in the crystal structure; crystal soak, compound concentration 100 mM; per dataset

SMILES	Modeled?
COC(=O)Nc1ccc(C(=O)NC2c3ccccc3CC2C(=O)O)cc1 (stereo not shown) [Z8531]	TRUE

Same assay, conditions: ligand occupancy after refinement (phenix.refine); crystal soaking of Mac1

SMILES	Refined occupancy
COC(=O)Nc1ccc(C(=O)NC2c3ccccc3CC2C(=O)O)cc1 (stereo not shown) [Z8531]	8
O=C(NC1c2cccc(O)c2CC1C(=O)O)c1ccc(Nn2ccnc2)cc1 (stereo not shown) [Z8539_0011]	70

Same assay, conditions: overall hit flag: binding in crystallographic soaking or the HTRF-based binding assay

SMILES	HIT*
COC(=O)Nc1ccc(C(=O)NC2c3ccccc3CC2C(=O)O)cc1 (stereo not shown) [Z8531]	Y

Same assay, conditions: true hit = binding in crystallographic soaking or the HTRF-based binding assay

SMILES	HIT*
O=C(NC1c2cccc(O)c2CC1C(=O)O)c1ccc(Nn2ccnc2)cc1 (stereo not shown) [Z8539_0011]	Y

These compounds were tested against T1, SARS-CoV-2 NSP3 Mac1 (assay: not given). Conditions: DSF dose responsiveness, 1 µM nsp3 mac1; adj p given.
Type: binding
Design: contains a conserved macrodomain enzyme (Mac1)
Outline: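 ΔTma values are thermal shifts relative to a co-located DMSO-only control, read with 5 µM Fluorescent Yellow dye. Each compound was tested in triplicate over seven concentrations (two-fold steps, top 1,000 or 100 μM). Spearman correlation of concentration versus ΔTma tested whether the shift was dose-responsive.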

SMILES	Spearman est (compound concentration vs apparent Tm)
COC(=O)Nc1ccc(C(=O)NC2c3ccccc3CC2C(=O)O)cc1 (stereo not shown) [Z8531]	0.72
O=C(NC1c2cccc(O)c2CC1C(=O)O)c1ccc(Nn2ccnc2)cc1 (stereo not shown) [Z8539_0011]	0.18

Same assay, conditions: maximal thermal upshift

SMILES	DSF max dTma
O=C(NC1c2cccc(O)c2CC1C(=O)O)c1ccc(Nn2ccnc2)cc1 (stereo not shown) [Z8539_0011]	1.23 ˚C

Same assay, conditions: maximal thermal upshift vs DMSO control

SMILES	DSF max dTma [°C]
COC(=O)Nc1ccc(C(=O)NC2c3ccccc3CC2C(=O)O)cc1 (stereo not shown) [Z8531]	0.6

What follows are compounds tested against T1, SARS-CoV-2 NSP3 Mac1 (assay: biochemical). Conditions: HTRF ADPr-peptide displacement from SARS-CoV-2 Mac1; read-out: IC50.
Type: binding

SMILES	IC50 [µM]
COC(=O)Nc1ccc(C(=O)NC2c3ccccc3CC2C(=O)O)cc1 (stereo not shown) [Z8531]	> 250
O=C(NC1c2cccc(O)c2CC1C(=O)O)c1ccc(Nn2ccnc2)cc1 (stereo not shown) [Z8539_0011]	19

Same assay, conditions: Ki estimation from HTRF-derived IC50, Cheng-Prusoff, peptide 400nM, Kd 2.68µM; read-out: Ki***

SMILES	Ki [µM]
O=C(NC1c2cccc(O)c2CC1C(=O)O)c1ccc(Nn2ccnc2)cc1 (stereo not shown) [Z8539_0011]	16.5
